The values that follow come from patent US20030176456A1, “Methods for reducing alcohol cravings in chronic alcoholics” (priority 2001, published 2003).

One data set concerns P rats. It counts as in vivo, rat. As for the experimental part: Rats were placed in the middle of the automated plus maze (Acuscan Electronics, Columbus, Ohio, USA) with two walled and open arms under dim illumination (for details see June et al., 1998b).
βCCt (5-60 mg/kg i.p.) and chlordiazepoxide (2.5, 5, 10 mg/kg i.p.) were administered 15 and 30 min, respectively, prior to being placed in the plus maze or open field. EtOH (1.25 g/kg) was given 5 min prior to placing the rats in the open field. When βCCt was given in combination with either chlordiazepoxide or EtOH, it was given 10 min prior to chlordiazepoxide and EtOH. As noted above, βCCt was administered in Tween-20 solution, while all other drugs were mixed in sterile saline. Animals were tested between 9am-3 pm.
HAD-1 asnd P rats were randomly assigned to each of the […] drug treatment groups (Veh, 5, 15, 30, 60 mg/kg). A between group ANOVA with drug treatment as the independent factor was conducted for HAD-1 (n=8-12 per treatment group) [total N=42] and P (n=7-12 per treatment group) [total N=42] rats on the plus-maze test.

The target of a further data set is T1, α5 GABAA receptor (Homo sapiens, UniProt P18507+P31644).
T1 construct: expressed in transfected cells; host or cells: HEK cells
Put plainly: Modulation of GABA induced currents in HEK cells. It counts as cell-based. The settings on record: 0.1 to 100 μM. On the procedure: (§1) In this study, we assessed the functional capacity of βCCt to competitively antagonize the anxiolytic versus the sedative properties of the prototypical BDZ, chlordiazepoxide.
(§2) FIGS. 21-26 represent the molecular biology data in α1-α6 GABAA receptors. […] In other words, βCCt behaves like chlordiazepoxide at the anxiety receptors. It is important to note that these effects occur at 50-100 μM, and would most likely be observed at moderate doses.

The target in another data set is T2, α1 GABAA receptor (Homo sapiens, UniProt P14867+P18507).
T2 construct: expressed in transfected cells; host or cells: HEK cells
The experiment in a line: Modulation of GABA induced currents in HEK cells. Type of data set: cell-based. The note with it: 0.1 to 100 μM. On the procedure: as §1, §2

The target in the next data set is T3, α6 GABAA receptor (Homo sapiens, UniProt P18507+Q16445).
T3 construct: expressed in transfected cells; host or cells: HEK cells
Put plainly: Modulation of GABA induced currents in HEK cells. Type of data set: cell-based. The note with it: 0.1 to 100 μM. On the procedure: as §1, §2

The next data set addresses T4, α3 GABAA receptor (Homo sapiens, UniProt P18507+P34903).
T4 construct: expressed in transfected cells; host or cells: HEK cells
The experiment in a line: Modulation of GABA induced currents in HEK cells. Type of data set: cell-based. On the procedure: as §1, §2

The next data set deals with T5, α2 GABAA receptor (Homo sapiens, UniProt P18507+P47869).
T5 construct: expressed in transfected cells; host or cells: HEK cells
The experiment in a line: Modulation of GABA induced currents in HEK cells. It counts as cell-based. On the procedure:
as §1, §2

The target of the next data set is T6, α4 GABAA receptor (Homo sapiens, UniProt P18507+P48169).
T6 construct: expressed in transfected cells; host or cells: HEK cells
The experiment in a line: Modulation of GABA induced currents in HEK cells. It counts as cell-based. The settings on record: 0.1 to 100 μM. As for the experimental part: as §1, §2

The subject of data set [1] is high-alcohol drinking (HAD-1) rats. The experiment in a line: Operant self-administration, EtOH (and alternate-day sucrose). It counts as in vivo, rat. As for the experimental part: Operant, Self-administration Apparatus, Training, and Drug Treatment Procedures Behavioral Testing Apparatus. Behavioral testing was conducted in 15 standard operant chambers (Coulbourn Instruments, Allentown, Pa.) equipped with two removable levers and two dipper fluid delivery systems enclosed in sound-attenuated cubicles as previously described (June et al., 1998b; 1998e). All dipper presentations provided a 1.5-sec access to a 0.1-ml dipper, followed by a 3-sec time out period. Above each lever, three stimulus lights (red, green and yellow) were present, and a stimulus delivery/reinforcer was indicated by illumination of the middle (green) stimulus light. Responses and reinforcements were recorded and controlled by a Dell computer using the 4.0 Coulbourn L2T2 operant software package.
HAD-1 Rats. To assess the capacity of βCCt to modulate EtOH responding in the VP, rats were trained to lever press for alcohol only (see below). However, an alternate-day access paradigm was employed to investigate the capacity of systemic injections of βCCt to modify EtOH and sucrose-maintained responding. […] In the VP study rats were initially trained to orally self-administer EtOH and water in daily 60 min sessions on a concurrent FRI schedule in a two-lever choice situation. After a period of stabilization on the FRI schedule, the response requirement was increased to a concurrent FR4 schedule and the water reinforcer was gradually eliminated from the protocol and replaced with EtOH. Thus, the VP HAD-1 rats responded concurrently for EtOH solutions on both levers. The VP HAD rats were then stabilized on this regimen for 3 weeks prior to any microinfusions. Responding was considered stable when responses were within ±20% of the average responses for five consecutive days.
Rats in, the systemic study were trained in a similar manner as the VP animals, except that after a 2 week stabilization period on the concurrently presented EtOH solutions, a series of preliminary studies were conducted to determine the sucrose concentration that produced response rates and profiles similar to that of EtOH during an alternate-day presentation schedule. Following this determination, rats were then stabilized on a regimen of 10% (v/v) EtOH on day 1, and 1% (w/v) sucrose on day 2. This alternate day paradigm continued until a two weeks. After this final stabilization period, the drug treatment phase began. Again, responding was considered stable when responses were within ±20% of the average responses for five consecutive days. The position of the levers and associated dippers for each reinforcer was alternated daily to control for the establishment of lever preference under all concurrent schedules when two different reinforcers were present.
βCCt was administered 15 min before the operant session to allow for optimal absorption and CNS distribution. βCCt was tested at doses of 1-40 mg/kg. The duration of the operant sessions was 60 min, however, subjects were tested at 24 and 48 hours post-drug administration to determine if any residual drug effects remained. A minimum of 72 and maximum of 96 hours was allocated between drug treatments to permit animals to return to baseline levels. This period prevented confounding of drug treatments due to residual effects. […] All systemic drug treatments were given in a randomized design.
The microinfusions were delivered immediately before the operant session with a Harvard infusion pump, during which time animals were able to move about freely in their home cages (for details see June et al., 2001). The injection cannula extended 1 mm beyond the tip of the guide cannulae. βCCt was dissolved in artificial cerebrospinal fluid (aCSF) (composition in mM: NaCl, 120; KCl, 4.8; KH2PO4, 1.2; MgSO4, 1.2; NaHCO3, 25; CaCl2, 2.5; d-glucose, 10). […]

For the next data set, the target named is T7, GABAA α5β3γ2 receptors (Rattus norvegicus, UniProt P18508+P19969).
T7 construct: expressed in transfected cells; host or cells: Xenopus laevis oocytes injected with cRNA
Put plainly: Xenopus oocyte expression assay, modulation of GABA current. Type of data set: cell-based. The settings on record: saturating 1-10 μM modulator with EC50 GABA (30 μM); mean±S.D.

Molecules are shown by their SMILES.

T5 sequence (P47869 29-451): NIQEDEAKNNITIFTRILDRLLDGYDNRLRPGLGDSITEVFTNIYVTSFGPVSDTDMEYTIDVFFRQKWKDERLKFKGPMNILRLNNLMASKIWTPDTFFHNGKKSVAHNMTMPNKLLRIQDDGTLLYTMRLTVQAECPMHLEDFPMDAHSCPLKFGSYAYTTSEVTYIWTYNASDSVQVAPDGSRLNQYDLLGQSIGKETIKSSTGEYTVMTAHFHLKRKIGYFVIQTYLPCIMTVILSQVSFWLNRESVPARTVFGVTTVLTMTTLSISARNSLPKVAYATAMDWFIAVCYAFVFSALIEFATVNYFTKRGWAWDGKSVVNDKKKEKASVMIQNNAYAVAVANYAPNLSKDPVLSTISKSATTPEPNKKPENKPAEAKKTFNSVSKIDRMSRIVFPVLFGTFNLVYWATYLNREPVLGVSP
T5 sequence (P28472 26-473 partner): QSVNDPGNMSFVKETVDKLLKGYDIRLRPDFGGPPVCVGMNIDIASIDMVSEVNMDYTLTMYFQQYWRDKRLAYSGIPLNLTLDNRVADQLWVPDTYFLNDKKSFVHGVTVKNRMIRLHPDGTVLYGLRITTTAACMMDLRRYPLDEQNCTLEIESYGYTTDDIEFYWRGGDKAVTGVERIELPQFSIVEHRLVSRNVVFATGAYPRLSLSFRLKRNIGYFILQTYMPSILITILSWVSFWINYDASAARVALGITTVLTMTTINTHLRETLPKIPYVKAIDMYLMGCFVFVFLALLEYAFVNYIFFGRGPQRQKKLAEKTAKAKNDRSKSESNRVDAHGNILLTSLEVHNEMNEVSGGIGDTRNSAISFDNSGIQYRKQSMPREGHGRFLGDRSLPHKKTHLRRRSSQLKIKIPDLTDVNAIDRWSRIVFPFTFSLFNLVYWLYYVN
T5 sequence (P18507 40-475): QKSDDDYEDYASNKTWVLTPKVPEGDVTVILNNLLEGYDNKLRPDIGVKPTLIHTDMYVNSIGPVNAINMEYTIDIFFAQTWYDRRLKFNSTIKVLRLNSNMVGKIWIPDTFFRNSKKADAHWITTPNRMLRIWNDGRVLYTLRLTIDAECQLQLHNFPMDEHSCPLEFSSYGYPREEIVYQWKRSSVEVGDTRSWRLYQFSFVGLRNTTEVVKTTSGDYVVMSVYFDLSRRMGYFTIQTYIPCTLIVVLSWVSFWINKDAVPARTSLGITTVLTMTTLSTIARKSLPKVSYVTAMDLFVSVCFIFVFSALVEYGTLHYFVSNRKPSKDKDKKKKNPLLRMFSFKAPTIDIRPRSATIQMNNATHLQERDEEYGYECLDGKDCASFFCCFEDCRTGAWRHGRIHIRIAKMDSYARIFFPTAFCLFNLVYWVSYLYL
T1 sequence (P31644 32-462): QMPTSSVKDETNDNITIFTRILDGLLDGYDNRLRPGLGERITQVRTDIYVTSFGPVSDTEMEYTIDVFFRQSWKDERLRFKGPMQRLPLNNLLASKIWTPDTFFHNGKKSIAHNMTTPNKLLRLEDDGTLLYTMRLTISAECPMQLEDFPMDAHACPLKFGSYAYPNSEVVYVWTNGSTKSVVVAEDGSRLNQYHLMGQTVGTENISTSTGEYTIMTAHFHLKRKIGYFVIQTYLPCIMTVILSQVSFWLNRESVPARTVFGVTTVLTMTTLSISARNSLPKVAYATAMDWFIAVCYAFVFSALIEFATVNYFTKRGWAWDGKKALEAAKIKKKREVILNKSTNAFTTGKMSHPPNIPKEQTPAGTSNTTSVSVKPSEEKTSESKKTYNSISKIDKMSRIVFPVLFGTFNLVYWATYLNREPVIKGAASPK
T1 sequence (P28472 26-473 partner): as the sequence (P28472 26-473 partner) above
T1 sequence (P18507 40-475): as the sequence (P18507 40-475) above
T3 sequence (Q16445 20-453): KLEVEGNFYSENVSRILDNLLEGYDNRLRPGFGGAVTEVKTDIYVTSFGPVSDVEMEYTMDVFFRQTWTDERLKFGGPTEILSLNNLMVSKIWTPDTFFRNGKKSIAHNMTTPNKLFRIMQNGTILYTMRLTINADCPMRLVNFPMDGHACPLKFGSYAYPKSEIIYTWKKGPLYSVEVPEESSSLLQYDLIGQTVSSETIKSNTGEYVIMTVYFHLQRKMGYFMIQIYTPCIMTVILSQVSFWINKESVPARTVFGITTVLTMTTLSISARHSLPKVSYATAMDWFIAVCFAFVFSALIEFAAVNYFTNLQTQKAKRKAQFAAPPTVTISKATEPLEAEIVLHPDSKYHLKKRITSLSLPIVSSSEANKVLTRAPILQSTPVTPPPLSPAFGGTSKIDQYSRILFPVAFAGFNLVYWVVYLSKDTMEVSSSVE
T3 sequence (P28472 26-473 partner): as the sequence (P28472 26-473 partner) above
T3 sequence (P18507 40-475): as the sequence (P18507 40-475) above
T6 sequence (P48169 36-554): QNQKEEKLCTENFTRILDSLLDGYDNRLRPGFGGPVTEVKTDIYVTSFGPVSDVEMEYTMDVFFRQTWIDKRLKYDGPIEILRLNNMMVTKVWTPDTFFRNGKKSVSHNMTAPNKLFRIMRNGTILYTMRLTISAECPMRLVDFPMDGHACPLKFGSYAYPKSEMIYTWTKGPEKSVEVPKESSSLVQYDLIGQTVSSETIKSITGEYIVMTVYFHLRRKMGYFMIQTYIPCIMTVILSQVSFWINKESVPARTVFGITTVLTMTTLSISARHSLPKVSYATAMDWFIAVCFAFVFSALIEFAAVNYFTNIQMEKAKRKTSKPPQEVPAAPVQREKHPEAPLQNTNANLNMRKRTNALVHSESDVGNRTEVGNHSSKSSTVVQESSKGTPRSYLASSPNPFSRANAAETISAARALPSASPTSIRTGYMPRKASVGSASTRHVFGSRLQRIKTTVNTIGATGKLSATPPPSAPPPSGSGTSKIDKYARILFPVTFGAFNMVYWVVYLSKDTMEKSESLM
T6 sequence (P28472 26-473 partner): as the sequence (P28472 26-473 partner) above
T6 sequence (P18507 40-475): as the sequence (P18507 40-475) above
T4 sequence (P34903 29-492): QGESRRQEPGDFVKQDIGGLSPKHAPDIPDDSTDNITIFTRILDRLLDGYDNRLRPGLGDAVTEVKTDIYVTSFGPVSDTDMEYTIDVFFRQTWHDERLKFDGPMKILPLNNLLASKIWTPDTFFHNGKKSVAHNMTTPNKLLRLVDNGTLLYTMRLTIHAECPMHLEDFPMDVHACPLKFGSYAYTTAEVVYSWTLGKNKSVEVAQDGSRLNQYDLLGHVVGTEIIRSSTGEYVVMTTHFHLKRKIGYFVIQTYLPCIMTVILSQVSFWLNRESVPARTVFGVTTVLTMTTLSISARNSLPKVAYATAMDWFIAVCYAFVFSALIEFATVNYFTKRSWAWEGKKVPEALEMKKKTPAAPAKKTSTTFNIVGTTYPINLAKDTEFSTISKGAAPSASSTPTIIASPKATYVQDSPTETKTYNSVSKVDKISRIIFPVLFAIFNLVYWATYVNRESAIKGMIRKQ
T4 sequence (P28472 26-473 partner): as the sequence (P28472 26-473 partner) above
T4 sequence (P18507 40-475): as the sequence (P18507 40-475) above
T2 sequence (P14867 28-456): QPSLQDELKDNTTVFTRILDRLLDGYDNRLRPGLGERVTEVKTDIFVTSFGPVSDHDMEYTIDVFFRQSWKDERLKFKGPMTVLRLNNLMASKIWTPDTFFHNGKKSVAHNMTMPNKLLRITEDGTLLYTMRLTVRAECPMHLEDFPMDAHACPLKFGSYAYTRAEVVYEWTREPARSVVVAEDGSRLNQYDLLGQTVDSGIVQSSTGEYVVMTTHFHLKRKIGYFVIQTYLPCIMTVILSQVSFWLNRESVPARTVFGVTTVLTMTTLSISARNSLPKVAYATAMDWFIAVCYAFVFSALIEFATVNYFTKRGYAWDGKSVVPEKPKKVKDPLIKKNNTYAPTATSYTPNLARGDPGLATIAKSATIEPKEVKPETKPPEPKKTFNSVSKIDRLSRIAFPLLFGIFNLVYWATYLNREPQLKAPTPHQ
T2 sequence (P28472 26-473 partner): as the sequence (P28472 26-473 partner) above
T2 sequence (P18507 40-475): as the sequence (P18507 40-475) above

Take `CC(C)(C)OC(=O)c1cc2c(cn1)[nH]c1ccccc12` [βCCt, β-carboline-3-carboxylate t-butyl ester]: the “effect on anxiolytic activity produced by chlordiazepoxide (5.0 mg/kg)” value in the data set on P rats (5, 15 mg/kg i.p.) is on record as “neither dose of βCCt (5, 15 mg/kg, i.p.) altered the anxiolytic activity”. Further, in the data set on P rats (i.p. 5-60 mg/kg), the “number of closed arm entries” value is recorded as “significant reduction in performance only with the 60 mg/kg dose”. In addition, at α5 GABAA receptor, the “activity at the α5 receptor in HEK cells” value was “Agonist and inverse-agonist activity”; the “intrinsic activity in HEK cells, α5” value is reported as “Intrinsic activity is seen”. In addition, at α1 GABAA receptor, the “activity at the α1 receptor in HEK cells” value is “Agonist and inverse-agonist activity”; the “intrinsic activity in HEK cells, α1” value is on record as “Intrinsic activity is seen”. In addition, on α6 GABAA receptor, the “activity at the α6 receptor in HEK cells” value was “Minimal agonist activity” and the “intrinsic activity in HEK cells, α6” value was “Intrinsic activity is seen”. Further, the “activity at the α3 receptor in HEK cells” value at α3 GABAA receptor (0.1 to 100 μM) is “Strong agonist activity”. At α3 GABAA receptor (HEK cells), the “concentration at which agonist-like effects occur, α3” value fell in the range of 50 to 100 µM. On α2 GABAA receptor (0.1 to 100 μM), the “activity at the α2 receptor in HEK cells” value is recorded as “Strong agonist activity” and the “intrinsic activity in HEK cells, α2” value is listed as “Intrinsic activity is seen”. The “concentration at which agonist-like effects occur, α2” value at α2 GABAA receptor (HEK cells) was 50 to 100 µM. In addition, on α4 GABAA receptor, the “activity at the α4 receptor in HEK cells” value is recorded as “Moderate agonist activity” and the “intrinsic activity in HEK cells, α4” value is “Intrinsic activity is seen”. Moreover, the “dose required to reduce sucrose reinforcer compared to alcohol” value in data set [1] (i.p.) is “four-fold higher dose”. Further, in data set [1] (i.p. 10 mg/kg), the sucrose-maintained responding result is reported as “marked suppression”. Moreover, the EtOH-maintained responding result in data set [1] (i.p. 1-10 mg/kg, alternate-day access) was “dose-dependently suppressed”. Besides, in [1] (unilateral VP infusion 2.5-7.5 μg, 24 hr post-drug administration), the “reduction of EtOH responding 24 hr post-drug” value is on record as 54-63 % of control levels. Further, the EtOH-maintained responding result in data set [1] (unilateral infusion 0.5-7.5 μg into VP) is recorded as “dose-dependently reduced”. In addition, the alcohol-maintained responding result in data set [1] (unilateral infusion into CPu/NACC) was “completely ineffective”. In addition, the “% of GABA response, α5” value at GABAA α5β3γ2 receptors is on record as 88±7%.
